Experimental data published in the supplement of paper PMC10627819.

Assays:
[1] = system: B. subtilis 168; assay: fitness (endpoint OD595 vs no drug) (fraction); higher = more growth
Summary of the method: (§1)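 Plates with 384 wells were inoculated at OD595 0.01 using 30 µl of TSB, LB Lennox or CY, or 55 µl for S. pneumoniae. Incubation was at 37 °C, with OD595 measured every 30 min for 14 h. Fitness is the stationary-phase transition optical density over the robust mean of no-drug control wells, after first-reading background subtraction; it is capped at 1.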

[2] = system: S. pneumoniae D39V; assay: as above
Summary of the method: as §1

[3] = system: B. subtilis 168; assay: Bliss interaction score (quartile over a dose matrix) (fitness difference); higher = more antagonism (negative = synergy)
Summary of the method: (§2)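 Fitness is OD595 at stationary-phase entry relative to the plate's robust no-drug mean, capped at 1. Single-drug fitness was inferred from combinations. The Bliss score is observed minus product-expected fitness, summarised by quartiles over technical, biological and donor/recipient replicates.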

[4] = system: S. aureus DSM 20231; assay: as above
Summary of the method: as §2

[5] = system: S. aureus Newman; assay: as above
Summary of the method: as §2

[6] = system: S. pneumoniae D39V; assay: as above
Summary of the method: as §2
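For Bliss interaction score (quartile over a dose matrix) in this document: first quartile when negative (synergy) and third quartile when positive (antagonism).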

CN(C)C(=O)C(CCN1CCC(O)(c2ccc(Cl)cc2)CC1)(c1ccccc1)c1ccccc1 [Loperamide] + CN(C)c1cc(NC(=O)CNC(C)(C)C)c(O)c2c1C[C@H]1C[C@H]3[C@H](N(C)C)C(O)=C(C(N)=O)C(=O)[C@@]3(O)C(O)=C1C2=O [Tigecycline]
fitness
Conditions | first compound 17.14 µg/mL | first compound 20 µg/mL | first compound 25 µg/mL | first compound 34.28 µg/mL | first compound 40 µg/mL | first compound 50 µg/mL | first compound 80 µg/mL | first compound 100 µg/mL
[1], partner 0.039 µg/mL | – | – | 0.894 | – | – | 0.132 | – | 0.0203
[1], partner 0.078 µg/mL | – | – | 0.832 | – | – | 0.0334 | – | 0.0305
[1], partner 0.156 µg/mL | – | – | 0.825 | – | – | 0.0355 | – | 0.0215
[2], partner 0.65 µg/mL | 0.945 | 0.995 | – | 0.993 | 0.991 | – | 0.0427 | –
[2], partner 1.3 µg/mL | ≥ 1 | 0.931 | – | 0.991 | 0.977 | – | 0.0494 | –
[2], partner 2.6 µg/mL | ≥ 1 | 0.944 | – | 0.98 | 0.995 | – | 0.0611 | –

fitness, one replicate
Conditions | partner 0.125 µg/mL | partner 0.25 µg/mL | partner 0.5 µg/mL | partner 0.65 µg/mL | partner 1.3 µg/mL | partner 2.6 µg/mL
[1], first compound 25 µg/mL | 0.978 | 0.884 | 0.858 | – | – | –
[1], first compound 50 µg/mL | 0.327 | 0.22 | 0.272 | – | – | –
[1], first compound 100 µg/mL | 0.67 | 0.512 | 0.67 | – | – | –
[2], first compound 68.57 µg/mL | – | – | – | ≥ 1 | ≥ 1 | ≥ 1

Conditions | Bliss interaction score
[3] | 0.115
[4] | -0.115
[5] | 0.0321
[6] | 0.084

CCCCCCCCCC(=O)N[C@@H](Cc1c[nH]c2ccccc12)C(=O)N[C@H](CC(N)=O)C(=O)N[C@@H](CC(=O)O)C(=O)N[C@@H]1C(=O)NCC(=O)N[C@@H](CCCN)C(=O)N[C@@H](CC(=O)O)C(=O)N[C@H](C)C(=O)N[C@@H](CC(=O)O)C(=O)NCC(=O)N[C@H](CO)C(=O)N[C@@H]([C@H](C)CC(=O)O)C(=O)N[C@@H](CC(=O)c2ccccc2N)C(=O)O[C@@H]1C [Daptomycin] + CCC(C)C1C(=O)NC(=C)C(=O)NC(C(=O)NC(CSCC(C(=O)N1)NC(=O)/C(=C/C)/NC(=O)C(C(C)CC)N)C(=O)NC2C(SCC(NC(=O)CNC(=O)C3CCCN3C2=O)C(=O)NC(CCCCN)C(=O)NC4C(SCC(NC(=O)CNC(=O)C(NC(=O)C(NC(=O)C(NC(=O)CNC4=O)C)CC(C)C)CCSC)C(=O)NC(CC(=O)N)C(=O)NC(CCSC)C(=O)NC(CCCCN)C(=O)NC5C(SCC6C(=O)NC(C(=O)NC(CSC(C(C(=O)N6)NC(=O)C(NC5=O)C)C)C(=O)NC(CO)C(=O)NC(C(C)CC)C(=O)NC(CC7=CN=CN7)C(=O)NC(C(C)C)C(=O)NC(=C)C(=O)NC(CCCCN)C(=O)O)CC8=CN=CN8)C)C)C)CC(C)C [Nisin]
fitness, [1], one replicate, main component drawn
Conditions | first compound 0.125 µg/mL | first compound 0.25 µg/mL | first compound 0.5 µg/mL | first compound 1 µg/mL
partner 0.5 µg/mL | 0.829 | – | – | 0.726
partner 1 µg/mL | 0.873 | – | – | 0.676
partner 1.25 µg/mL | 0.963 | 0.933 | ≥ 1 | –
partner 1.6 µg/mL | 0.788 | 0.654 | 0.797 | –
partner 2 µg/mL | 0.439 | – | – | 0.451
partner 2.5 µg/mL | 0.234 | 0.593 | 0.601 | –
partner 3.2 µg/mL | 0.0337 | 0.0148 | 0.0344 | –
partner 4 µg/mL | 0.212 | 0.0372 | 0.0568 | –
partner 5 µg/mL | 0.077 | 0.0364 | 0.0223 | –
partner 6.4 µg/mL | 0.0443 | 0.039 | 0.026 | –
partner 8 µg/mL | 0.0734 | 0.157 | 0.0959 | –
partner 16 µg/mL | 0.0313 | 0.1 | 0.0497 | –

fitness, main component drawn
Conditions | partner 0.4275 µg/mL | partner 0.5 µg/mL | partner 0.855 µg/mL | partner 1 µg/mL | partner 1.6 µg/mL | partner 1.71 µg/mL | partner 2 µg/mL | partner 3.2 µg/mL | partner 6.4 µg/mL
[1], first compound 0.25 µg/mL | – | 0.863 | – | 0.788 | – | – | 0.58 | – | –
[1], first compound 0.5 µg/mL | – | 0.828 | – | 0.794 | – | – | 0.595 | – | –
[2], first compound 1 µg/mL | 0.995 | – | 0.874 | – | 0.022 | 0.0748 | – | 0.0226 | 0.0257
[2], first compound 2 µg/mL | 0.98 | – | 0.905 | – | 0.0316 | 0.077 | – | 0.0221 | 0.013
[2], first compound 4 µg/mL | 0.95 | – | 0.796 | – | 0.0215 | 0.0872 | – | 0.0303 | 0.0068

main component drawn
Conditions | Bliss interaction score
[3] | 0.0676
[4] | 0.209
[5] | 0.0445
[6] | -0.0492
